# Patent publication US20120219506A1, “Catenae: Serosal Cancer Stem Cells” (SLOAN KETTERING INSTITUTE FOR CANCER RESEARCH, priority 2009, published 2012)
# Where two headings read alike, the source gives them in different places.
# How the values were obtained:
# Ovcar3-GTL catenae [1] = test: Catena morphology on basement membrane matrix (Matrigel) coated plates; assay type: cell-based, human; details: for morphology on Matrigel, hyaluronidase-pretreated cells grown with 4-MU and Y27632 / morphology on Matrigel, mechanically-dissociated cells grown with 4-MU and Y27632: 1 mM 4-MU together with 50 μM Y27632, imaged after 4 days
# Method: Ovcar3-GTL catenae were dissociated to single cells by mechanical dissociation or by hyaluronidase treatment and cultured on basement membrane matrix (Matrigel) coated plates. A similar set of cultures were grown in the presence of 1 mM 4-methylumbelliferone (4-MU) and 50 μM Y27632, the former being an hyaluronan synthase 2 (HAS2) inhibitor and the latter being a Rho-ROCK inhibitor. The cultures were imaged after 4 days.
# catena cells [2] = test: Morphological effects on catena cells observed under the microscope; assay type: cell-based, human; details: for catena cells observed under the microscope in cultures treated with high concentrations: 100 μM (rapamycin 25 μM, lovastatin acid 50 μM), cells arrested at mitosis, re-entered cell cycle without drug
# Method: When these cells were harvested and cultured in the absence of drugs, they re-entered the cell cycle.
# These spheroids continued to grow in the presence of high concentrations of rapamycin (>50 uM) and retained their spheroid morphology.
# The change in the cell-to-cell junctions might also be a resistance mechanism where cells activate signaling pathways by increasing cell-to-cell attachment or more tightly control transport of molecules between cells. […]
# Ovcar3-GTL catenae [3] = test: Ovcar3-GTL catena drug sensitivity (proliferation, alamarBlue, 384-well)
# Method: Cultures of Ovcar3-GTL catenae were mechanically or enzymatically dissociated to single cells. For mechanical dissociation, catena cultures were pipetted vigorously, an equal volume of M5-FCS media was added to decrease the viscosity, and the cells were pelleted. For enzymatic dissociation, catena cultures were incubated at 5 mg/ml collagenase IV (Invitrogen) for 10 min at 37° C. followed by centrifugation to pellet the cells. Cells were resuspended in M5-FCS to produce homogenous cultures of single cells which were seeded in 50 μL aliquots per well at the indicated cell densities and grown for the indicated times before addition of test compounds or other reagents.
# The amount of fluorescence or absorbance is proportional to the number of living cells and corresponds to the cells metabolic activity. […] Absorbance of alamarBlue® is monitored at 570 nm, using 600 nm as a reference wavelength. Larger fluorescence emission intensity (or absorbance) values correlate to an increase in total metabolic activity from cells.
# For these experiments, 25 Ovcar3-GTL catena or 250 Ovcar3-GTL catena cells were seeded per well as described above. […] Five days after adding the test compound, alamarBlue® was added to the cultures and culture absorbance was measured 48 hours later.
# catena cells [4] = test: Exosome release from catena cells (exosome isolation and FACS); assay type: cell-based, human; details: PMA 10 uM
# Method: To prepare secreted and exosomal fractions from catenae, the catenae were grown in serum-free media with insulin as described in Example 28 for 5 days, until the culture was near confluent. All centrifugations were done at 4° C. to preserve protein integrity. The cells were removed by centrifugation at 300×g for 10 min. The supernatant fraction was further spun down at 2,000×g for 20 minutes and at 10,000×g for 30 min to remove cellular debris. This supernatant was subjected to ultracentrifugation at100,000×g for 2.5 h. The new supernatant fraction, containing the soluble proteins secreted by catenae (i.e., the catena secretome) was concentrated 200-fold by through a 10 kDa molecular weight cutoff filter. The resulting pellet from the ultracentrifugation was washed twice with PBS, with each wash followed by another round of ultracentrifugation under the same conditions, and kept at 4° C. for further analysis. Exosomes were isolated from Ovcar5 and A2780 human ovarian cancer cell lines that were grown as attached mesenchymal monolayers and from two ovarian cancer patient ascites samples using the same methodology. […]
# The exosome isolation followed by FACS analysis allows rapid analysis of ovarian cancer stem cell exosomes both quantitatively and qualitatively. […]
# catena cells [5] = test: Growth of catena cells upon disruption of the glycocalyx; assay type: cell-based, human
# Method: To investigate the how catena cells grow upon disruption of the glycocalyx, catenae were dissociated to single cells with hyaluronidase treatment and plated in tissue culture treated flasks with or without 10% hyaluronidase enzyme solution (10 mg/ml) to prevent the formation of glycocalyx. In parallel, catenae were dissociated mechanically and plated in the absence of hyaluronidase.
# [6] = Viscosity of catena culture supernatant after hyaluronidase; details: a few drops 10 mg/mL hyaluronidase
# Method: In contrast, Ovcar3-GTL epithelial cells were 98% positive for CA125 by FACS and secreted 800 units/ml of CA125 into culture media. For the ELISA, cell supernatants were collected by spinning the cultures at 300×g for 5 min to remove cells and assayed by CA125 ELISA using an automated instrument, ADVIA Centaur XP Immunoassay System (Siemens Healthcare Diagnostics Inc.).
# Hyaluronan is a glycosaminoglycan found in extracellular matrix and functions to provide microenvironmental cues in a number of biological processes, including tumor development [Toole, 2004]. Supernatants prepared as above were treated with a few drops 10 mg/mL hyaluronidase (Sigma) in deionized water.
# Ovcar3-GTL catenae [7] = test: Particle exclusion experiment with red blood cells (glycocalyx visualisation); assay type: cell-based, human; details: brief incubation with hyaluronidase, RBCs overnight
# Method: To visualize the glycocalyx surrounding a catena, a particle exclusion experiment was conducted using red blood cells (RBCs). Catenae were mechanically dissociated by pipetting or by brief incubation with hyaluronidase as before. RBCs from human peripheral blood were added and the mixture was incubated overnight in culture media. The cells were observed under the light microscope for the presence of a glycocalyx separating catena cells from the RBCs.
molecule,measurement,setting,value
Cc1cc(=O)oc2cc(O)ccc12 [4-methylumbelliferone],"morphology on Matrigel, hyaluronidase-pretreated cells grown with 4-MU and Y27632",Ovcar3-GTL catenae [1],the cultures did not become viscous and the attached cells formed filopodial extensions
same,"morphology on Matrigel, mechanically-dissociated cells grown with 4-MU and Y27632",Ovcar3-GTL catenae [1],"did not become viscous; rather, the cells attached to the plates and formed filopodial extensions"
"O=c1[nH]cc(F)c(=O)[nH]1 [5-FU, 5-fluorouracil]",morphological change of catenae on treatment,catena cells [2],formation of fused chains
same,Increase in Resistance Day 6/Day 1,Ovcar3-GTL catenae [3]; IC50 day 6 / IC50 day 1,33 fold
"C=CCNC1=C2C[C@@H](C)C[C@H](OC)[C@H](O)[C@@H](C)/C=C(\C)[C@H](OC(N)=O)[C@@H](OC)/C=C\C=C(/C)C(=O)NC(=CC1=O)C2=O [17AAG, 17-AAG/Tanespimycin]",Increase in Resistance Day 6/Day 1,Ovcar3-GTL catenae [3]; IC50 day 6 / IC50 day 1,33 fold
Nc1ccn([C@@H]2O[C@H](CO)[C@@H](O)[C@@H]2O)c(=O)n1 [Ara-C],catena cells observed under the microscope in cultures treated with high concentrations,catena cells [2],"live, large single cells"
same,Increase in Resistance Day 6/Day 1,Ovcar3-GTL catenae [3]; IC50 day 6 / IC50 day 1,"2,000 fold"
"C/C(=C\c1csc(C)n1)[C@@H]1C[C@@H]2O[C@]2(C)CCC[C@H](C)[C@H](O)[C@@H](C)C(=O)C(C)(C)[C@@H](O)CC(=O)O1 [Epo-B, Epothilone B]",Increase in Resistance Day 6/Day 1,Ovcar3-GTL catenae [3]; IC50 day 6 / IC50 day 1,"4,000 fold"
O=c1cc(N2CCOCC2)oc2c(-c3ccccc3)cccc12 [LY294002],Increase in Resistance Day 6/Day 1,Ovcar3-GTL catenae [3]; IC50 day 6 / IC50 day 1,4 fold
CC(=O)c1c(C)c2cnc(Nc3ccc(N4CCNCC4)cn3)nc2n(C2CCCC2)c1=O [PD-0332991],Increase in Resistance Day 6/Day 1,Ovcar3-GTL catenae [3]; IC50 day 6 / IC50 day 1,83 fold
C[C@@H](Oc1cc(-c2cnn(C3CCNCC3)c2)cnc1N)c1c(Cl)ccc(F)c1Cl [PF-02341066],Increase in Resistance Day 6/Day 1,Ovcar3-GTL catenae [3]; IC50 day 6 / IC50 day 1,31 fold
O=C(CCCCCCC(=O)Nc1ccccc1)NO [SAHA],morphological change of catenae on treatment,catena cells [2],formation of tight spheroids
C[C@@H](N)[C@H]1CC[C@H](C(=O)Nc2ccncc2)CC1 [Y27632],"morphology on Matrigel, hyaluronidase-pretreated cells grown with 4-MU and Y27632",Ovcar3-GTL catenae [1],the cultures did not become viscous and the attached cells formed filopodial extensions
same,"morphology on Matrigel, mechanically-dissociated cells grown with 4-MU and Y27632",Ovcar3-GTL catenae [1],"did not become viscous; rather, the cells attached to the plates and formed filopodial extensions"
Cc1ccc2c(c1)C(=O)C1(O)CCN(c3ccccc3)C1=N2 (stereo not shown) [blebbistatin],exosome release,catena cells [4],inhibited exosome release
C/C1=C/C[C@@H](/C(C)=C/c2csc(C)n2)OC(=O)C[C@H](O)C(C)(C)C(=O)[C@H](C)[C@@H](O)[C@@H](C)CCC1 [dEpoB],Increase in Resistance Day 6/Day 1,Ovcar3-GTL catenae [3]; IC50 day 6 / IC50 day 1,"250,000 fold"
COc1cccc2c1C(=O)c1c(O)c3c(c(O)c1C2=O)C[C@@](O)(C(C)=O)C[C@@H]3O[C@H]1C[C@H](N)[C@H](O)[C@H](C)O1 [daunarubacin],Increase in Resistance Day 6/Day 1,Ovcar3-GTL catenae [3]; IC50 day 6 / IC50 day 1,133 fold
COc1cccc2c1C(=O)c1c(O)c3c(c(O)c1C2=O)C[C@@](O)(C(=O)CO)C[C@@H]3O[C@H]1C[C@H](N)[C@H](O)[C@H](C)O1 [doxorubicin],Increase in Resistance Day 6/Day 1,Ovcar3-GTL catenae [3]; IC50 day 6 / IC50 day 1,32 fold
COc1cc([C@@H]2c3cc4c(cc3[C@@H](O[C@@H]3O[C@@H]5CO[C@@H](C)O[C@H]5[C@H](O)[C@H]3O)[C@H]3COC(=O)[C@H]23)OCO4)cc(OC)c1O [etoposide],Increase in Resistance Day 6/Day 1,Ovcar3-GTL catenae [3]; IC50 day 6 / IC50 day 1,125 fold
C/C(=C\c1csc(C)n1)[C@@H]1C/C=C(/C(F)(F)F)C/C=C/[C@H](C)[C@H](O)[C@@H](C)C(=O)C(C)(C)[C@@H](O)CC(=O)O1 [fludelone],catena cells observed under the microscope in cultures treated with high concentrations,catena cells [2],"live, large single cells"
CC[C@H](C)C(=O)O[C@H]1C[C@@H](C)C=C2C=C[C@H](C)[C@H](CC[C@@H](O)C[C@@H](O)CC(=O)O)[C@H]21 [lovastatin acid],catena cells observed under the microscope in cultures treated with high concentrations,catena cells [2],"live, large single cells"
same,Increase in Resistance Day 6/Day 1,Ovcar3-GTL catenae [3]; IC50 day 6 / IC50 day 1,2 fold
CO[C@@]12[C@H](COC(N)=O)C3=C(C(=O)C(C)=C(N)C3=O)N1C[C@@H]1N[C@@H]12 [mitomycin-C],Increase in Resistance Day 6/Day 1,Ovcar3-GTL catenae [3],60 fold
CC(=O)O[C@H]1C(=O)[C@@]2(C)[C@H]([C@H](OC(=O)c3ccccc3)[C@]3(O)C[C@H](OC(=O)[C@H](O)[C@@H](NC(=O)c4ccccc4)c4ccccc4)C(C)=C1C3(C)C)[C@]1(OC(C)=O)CO[C@@H]1C[C@@H]2O [paclitaxel],catena cells observed under the microscope in cultures treated with high concentrations,catena cells [2],"live, large single cells"
same,IC50,"Ovcar3-GTL catenae [3]; Homo sapiens, read-out: IC50 Addition on Day 1",0.012 nM
CCCCCCCCCCCCCC(=O)O[C@@H]1[C@@H](C)[C@@]2(O)[C@@H](C=C(CO)C[C@]3(O)C(=O)C(C)=C[C@@H]23)[C@@H]2C(C)(C)[C@]12OC(C)=O [phorbol 12-myristate 13-acetate],exosome release,catena cells [4],induced exosomes release
CO[C@H]1C[C@@H]2CC[C@@H](C)[C@@](O)(O2)C(=O)C(=O)N2CCCC[C@H]2C(=O)O[C@H]([C@H](C)C[C@@H]2CC[C@@H](O)[C@H](OC)C2)CC(=O)[C@H](C)/C=C(\C)[C@@H](O)[C@@H](OC)C(=O)[C@H](C)C[C@H](C)/C=C/C=C/C=C/1C [rapamycin],Increase in Resistance Day 6/Day 1,Ovcar3-GTL catenae [3]; IC50 day 6 / IC50 day 1,2 fold
CC[C@@]1(O)C(=O)OCc2c1cc1n(c2=O)Cc2cc3c(CN(C)C)c(O)ccc3nc2-1 [topotecan],catena cells observed under the microscope in cultures treated with high concentrations,catena cells [2],"live, large single cells"
same,Increase in Resistance Day 6/Day 1,Ovcar3-GTL catenae [3]; IC50 day 6 / IC50 day 1,"5,000 fold"
hyaluronidase,"growth of catena cells after brief hyaluronidase treatment, plated without enzyme",catena cells [5],no longer formed free floating chains but rather proliferated as irregular aggregates in suspension
same,growth of catena cells continuously treated with hyaluronidase,catena cells [5]; 10% hyaluronidase enzyme solution (10 mg/ml),attached to tissue culture plates and formed epithelial and mesenchymal monolayers
same,"morphology on Matrigel, cells treated with only hyaluronidase",Ovcar3-GTL catenae [1]; imaged after 4 days,attached to extracellular matrix and grew as attached irregular aggregates
same,morphological change of catenae on treatment,catena cells [2],lose their polarity and form irregular aggregates
same,viscosity of the culture supernatant,[6],rapidly reduced the viscosity of the supernatant
same,glycocalyx in particle exclusion experiment,Ovcar3-GTL catenae [7],completely lacked a glycocalyx
iso-oxazole-fludelone,catena cells observed under the microscope in cultures treated with high concentrations,catena cells [2],"live, large single cells"
same,Increase in Resistance Day 6/Day 1,Ovcar3-GTL catenae [3]; IC50 day 6 / IC50 day 1,"33,333 fold"
